Data: ChEMBL document CHEMBL1127183, “Synthesis of 6-amino-5-oxo-7-phenyl-1,4-oxazepines as conformationally constrained gauche () dipeptide mimetics” (Bioorg Med Chem Lett, 1993)

Target: Angiotensin-converting enzyme (Homo sapiens, UniProt P12821)
Assay: Binding affinity against Angiotensin I converting enzyme

Sequence of Angiotensin-converting enzyme (P12821 whole entry): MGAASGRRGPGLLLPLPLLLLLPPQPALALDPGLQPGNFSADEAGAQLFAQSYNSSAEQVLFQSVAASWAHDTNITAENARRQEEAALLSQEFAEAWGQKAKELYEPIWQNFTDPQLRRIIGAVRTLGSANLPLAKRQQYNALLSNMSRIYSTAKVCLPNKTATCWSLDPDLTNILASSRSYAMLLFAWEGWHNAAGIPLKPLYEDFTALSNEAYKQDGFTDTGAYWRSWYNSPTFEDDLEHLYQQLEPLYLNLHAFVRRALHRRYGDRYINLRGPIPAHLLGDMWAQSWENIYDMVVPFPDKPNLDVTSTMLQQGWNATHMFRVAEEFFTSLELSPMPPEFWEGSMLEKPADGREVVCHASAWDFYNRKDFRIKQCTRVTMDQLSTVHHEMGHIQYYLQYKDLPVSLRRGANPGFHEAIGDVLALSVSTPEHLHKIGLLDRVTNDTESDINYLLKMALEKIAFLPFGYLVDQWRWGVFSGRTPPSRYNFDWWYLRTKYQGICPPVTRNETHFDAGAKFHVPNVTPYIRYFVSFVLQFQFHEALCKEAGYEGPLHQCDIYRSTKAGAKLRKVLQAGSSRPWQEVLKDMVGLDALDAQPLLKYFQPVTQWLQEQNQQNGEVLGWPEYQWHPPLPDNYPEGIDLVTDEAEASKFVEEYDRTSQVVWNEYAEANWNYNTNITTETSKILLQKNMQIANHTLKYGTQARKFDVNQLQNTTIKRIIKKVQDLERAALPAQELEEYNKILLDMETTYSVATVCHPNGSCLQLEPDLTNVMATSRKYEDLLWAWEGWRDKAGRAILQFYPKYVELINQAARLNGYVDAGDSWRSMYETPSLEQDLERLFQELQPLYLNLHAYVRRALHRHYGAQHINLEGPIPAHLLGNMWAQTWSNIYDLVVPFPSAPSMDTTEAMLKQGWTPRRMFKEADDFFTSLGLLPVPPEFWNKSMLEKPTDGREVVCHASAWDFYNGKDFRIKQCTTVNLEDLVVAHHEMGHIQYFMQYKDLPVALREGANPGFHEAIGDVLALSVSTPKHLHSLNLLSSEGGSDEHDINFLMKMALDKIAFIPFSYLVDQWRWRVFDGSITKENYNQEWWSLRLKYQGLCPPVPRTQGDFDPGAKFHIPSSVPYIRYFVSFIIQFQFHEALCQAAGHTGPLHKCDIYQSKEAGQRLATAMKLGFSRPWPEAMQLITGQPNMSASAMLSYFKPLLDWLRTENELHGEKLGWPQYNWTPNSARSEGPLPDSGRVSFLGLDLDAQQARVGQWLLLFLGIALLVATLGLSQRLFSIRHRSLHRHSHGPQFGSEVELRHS

Ki: 50 µM
SMILES: CC(C)C[C@H](C(=O)O)N1CCO[C@@H](c2ccccc2)[C@H](NC(=O)[C@H](S)Cc2ccccc2)C1=O
